# Patent US10329282B2, “Rho-associated protein kinase inhibitor, pharmaceutical composition comprising the same, as well as preparation method and use thereof” (Beijing Tide Pharmaceutical Co., Ltd., priority 2017, dated 2019)
# Target: ROCK2 (Homo sapiens (Human), UniProt O75116)
# Experiment: ROCK2 kinase IC50 assay (CISBIO HTRF KinEASE-STK S2 kit)
# Assay type: biochemical
# Conditions: ROCK2 from Carna Biosciences, 2 h incubation at room temperature
# Method: The kinase IC50 was determined by a commercialized CISBIO kinase detection kit, HTRF KinEASE-STK S2 kit (62ST2PEC). ROCK2 (01-119) employed in the reaction was purchased from Carna Biosciences.
# Before the assay, the following working solutions as needed were formulated with corresponding reagents according to the instruction of the kinase detection kit: 1×kinase buffer, 5×STK-52 substrate working solution (1.5 μM) and 5×ATP working solution (1.5 μM), 5×ROCK2 kinase working solution, 4×Streptavidin-XL665 working solution, and 4×STK-Ab-Cryptate 2 detection solution. Then the assay was performed according to the following procedure.
# A solution of a compound at a concentration of 10000 nM was prepared with the 1×kinase buffer containing 2.5% DMSO. Gradient dilution of the solution of the compound was performed with the kinase buffer containing DMSO, so as to obtain solutions of a test compound at 9 different concentrations. In addition to wells of test compounds, a positive well (containing all the reagents except the compound) and a negative well (containing all the reagents except the test compound and kinase) were set. Except for the control wells (positive and negative wells), a solution of a test compound (4 μL) was added to each of the reaction wells, and a solution of 2.5% DMSO was added to the control wells. Then the substrate (2 μM, i.e., 2 μL 5×STK-S2 substrate working solution) was added to each of the reaction wells. The 5×ROCK2 kinase working solution (2 μL, containing 1.4 ng ROCK2 kinase) was added to each of the reaction wells except for the negative well, the volume of which was made up with the 1×kinase buffer (2 μL). The 5×ATP working solution (2 μL) was added to each of the reaction wells, and the mixtures were incubated at room temperature for 2 hours. After the kinase reaction was complete, the 4×Streptavidin-XL665 working solution was added to each of the reaction wells, the solutions were mixed, followed by immediate addition of the 4×STK-Ab-Cryptate 2 detection solution (5 μL), and the mixtures were incubated at room temperature for 1 hour. The fluorescence signal was read on ENVISION (Perkinelmer) (excitation wavelength: 320 nm, and emission wavelength: 665 nm and 615 nm). The inhibitory rate in each well was calculated based on the fluorescence intensity value: ER (Emission Ratio)=(fluorescence intensity at 665 nm/fluorescence intensity at 615 nm); inhibitory rate=(ERpositive−ERtest compound) (ERpositive−ERnegative)*100%. Curves were plotted and fitted to obtain the median inhibitory concentration (IC50) of each teat compound with the PRISM 5.0 software.
# Sequence of ROCK2 (O75116 1-553): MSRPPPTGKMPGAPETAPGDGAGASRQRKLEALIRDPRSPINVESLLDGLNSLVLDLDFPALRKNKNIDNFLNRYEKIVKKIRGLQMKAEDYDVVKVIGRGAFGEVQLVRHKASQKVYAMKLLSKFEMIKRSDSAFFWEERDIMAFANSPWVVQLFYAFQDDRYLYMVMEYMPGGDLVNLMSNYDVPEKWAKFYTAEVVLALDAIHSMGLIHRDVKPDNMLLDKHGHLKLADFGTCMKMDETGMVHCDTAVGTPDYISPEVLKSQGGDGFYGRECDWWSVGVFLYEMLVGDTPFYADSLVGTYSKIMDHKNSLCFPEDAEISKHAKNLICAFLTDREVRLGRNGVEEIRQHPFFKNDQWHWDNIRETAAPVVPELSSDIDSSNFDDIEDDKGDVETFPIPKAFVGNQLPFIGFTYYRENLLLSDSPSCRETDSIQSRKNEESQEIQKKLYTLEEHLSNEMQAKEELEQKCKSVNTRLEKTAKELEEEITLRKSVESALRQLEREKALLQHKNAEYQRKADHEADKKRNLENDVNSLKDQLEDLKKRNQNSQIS
row,IC50,SMILES
1,0.028 µM,"CC(CO)NC(=O)c1cc2ccc(-c3nccc(Nc4ccc5[nH]ncc5c4)n3)cc2[nH]1 (stereo not shown) [TDI01176, 6-(4-((1H-indazol-5-yl)amino)pyrimidin-2-yl)-N-(1-hydroxypropan-2-yl)-1H-indole-2-carboxamide]"
2,0.094 µM,"CC(C)NC(=O)c1cc2ccc(-c3nccc(Nc4ccc(-c5cn[nH]c5)cc4)n3)cc2[nH]1 [TDI01280, 6-(4-((4-(1H-pyrazol-4-yl)phenyl)amino)pyrimidin-2-yl)-N-isopropyl-1H-indole-2-carboxamide]"
3,0.054 µM,"O=C(Nc1cnccn1)c1cc2ccc(-c3nccc(Nc4ccc5[nH]ncc5c4)n3)cc2[nH]1 [TDI01160, 6-(4-((1H-indazol-5-yl)amino)pyrimidin-2-yl)-N-(pyrazin-2-yl)-1H-indole-2-carboxamide]"
4,0.1 µM,"O=C(NC1CC1)c1cc2ccc(-c3nccc(Nc4ccc5[nH]ncc5c4)n3)cc2s1 [TDI01111, 6-(4-((1H-indazol-5-yl)amino)pyrimidin-2-yl)-N-cyclopropylbenzo[b]thiophene-2-carboxamide]"
5,0.185 µM,"O=C(NC1CCCCC1)c1cc2ccc(-c3nccc(Nc4ccc5[nH]ncc5c4)n3)cc2s1 [TDI01112, 6-(4-((1H-indazol-5-yl)amino)pyrimidin-2-yl)-N-cyclohexylbenzo[b]thiophene-2-carboxamide]"
6,0.275 µM,"O=C(c1cc2ccc(-c3nccc(Nc4ccc(-c5cn[nH]c5)cc4)n3)cc2[nH]1)N1CCOC[C@H]1CO [TDI01853, (R)-(6-(4-((4-(1H-pyrazol-4-yl)phenyl)amino)pyrimidin-2-yl)-1H-indol-2-yl)(3-(hydroxymethyl)morpholino)methanone]"
7,0.365 µM,CN(CC(F)(F)F)C(=O)c1cc2ccc(-c3ncc(F)c(Nc4ccc(-c5cn[nH]c5)cc4)n3)cc2[nH]1 [TDI01426]
8,0.47 µM,"CC(C)NC(=O)c1cc2ccc(-c3nc(Nc4ccc5[nH]ncc5c4)cc(OCCN(C)C)n3)cc2s1 [TDI01121, 6-(4-((1H-indazol-5-yl)amino)-6-(2-(dimethylamino)ethoxy)pyrimidin-2-yl)-N-isopropylbenzo[b]thiophene-2-carboxamide]"
9,0.016 µM,"N#CC1CN(C(=O)c2cc3ccc(-c4nccc(Nc5ccc(-c6cn[nH]c6)cc5)n4)cc3[nH]2)C1 [TDI01398, 1-(6-(4-((4-(1H-pyrazol-4-yl)phenyl)amino)pyrimidin-2-yl)-1H-indole-2-carbonyl)azetidine-3-carbonitrile]"
10,0.11 µM,"CC(C)NC(=O)c1cc2ccc(-c3nccc(Nc4ccc5[nH]ncc5c4)n3)cc2o1 [TDI01102, 6-(4-((1H-indazol-5-yl)amino)pyrimidin-2-yl)-N-isopropylbenzofuran-2-carboxamide]"
11,0.422 µM,"CN(C)C(=O)c1cc2ccc(-c3nccc(Nc4ccc5[nH]ncc5c4)n3)cc2s1 [TDI01110, 6-(4-((1H-indazol-5-yl)amino)pyrimidin-2-yl)-N,N-dimethylbenzo[b]thiophene-2-carboxamide]"
12,0.147 µM,"C[C@H](CN)NC(=O)c1cc2ccc(-c3nccc(Nc4ccc(-c5cn[nH]c5)cc4)n3)cc2[nH]1 [TDI01855, (R)-6-(4-((4-(1H-pyrazol-4-yl)phenyl)amino)pyrimidin-2-yl)-N-(1-aminopropan-2-yl)-1H-indole-2-carboxamide]"
13,0.018 µM,"CN1CCC(N2CCCC(NC(=O)c3cc4ccc(-c5nccc(Nc6ccc7[nH]ncc7c6)n5)cc4[nH]3)C2)CC1 (stereo not shown) [TDI01318, 6-(4-((1H-indazol-5-yl)amino)pyrimidin-2-yl)-N-(1′-methyl-[1,4′-bipiperidin]-3-yl)-1H-indole-2-carboxamide]"
14,0.341 µM,CN(C(=O)c1cc2ccc(-c3nccc(Nc4ccc(-c5cn[nH]c5)cc4)n3)cc2[nH]1)C1CCOCC1 [TDI01381]
15,0.046 µM,"O=C(Nc1ccncc1Cl)c1cc2ccc(-c3nccc(Nc4ccc5[nH]ncc5c4)n3)cc2[nH]1 [TDI01290, 6-(4-((1H-indazol-5-yl)amino)pyrimidin-2-yl)-N-(3-chloropyridin-4-yl)-1H-indole-2-carboxamide]"
16,0.046 µM,"O=C(Nc1ccc2[nH]ncc2c1)c1cc2ccc(-c3nccc(Nc4ccc5[nH]ncc5c4)n3)cc2[nH]1 [TDI01182, 6-(4-((1H-indazol-5-yl)amino)pyrimidin-2-yl)-N-(1H-indazol-5-yl)-1H-indole-2-carboxamide]"
17,0.082 µM,N#Cc1cnccc1NC(=O)c1cc2ccc(-c3nccc(Nc4ccc(-c5cn[nH]c5)cc4)n3)cc2[nH]1 [TDI01829B]
18,0.219 µM,"CC(C)NC(=O)c1cc2ccc(-c3nc(Nc4ccc5[nH]ncc5c4)c4ccn(CCN(C)C)c4n3)cc2s1 [TDI01122, 6-(4-((1H-indazol-5-yl)amino)-7-(2-(dimethylamino)ethyl)-7H-pyrrolo[2,3-d]pyrimidin-2-yl)-N-isopropylbenzo[b]thiophene-2-carboxamide]"
19,0.026 µM,"O=C(NC1CCN(c2ccncc2Cl)CC1)c1cc2ccc(-c3nccc(Nc4ccc(-c5cn[nH]c5)cc4)n3)cc2[nH]1 [TDI01847B, 6-(4-((4-(1H-pyrazol-4-yl)phenyl)amino)pyrimidin-2-yl)-N-(1-(3-chloropyridin-4-yl)piperidin-4-yl)-1H-indole-2-carboxamide]"
20,0.41 µM,"CN1CCC2(CC1)CCN(C(=O)c1cc3ccc(-c4nccc(Nc5ccc6[nH]ncc6c5)n4)cc3[nH]1)CC2 [TDI01320, (6-(4-((1H-indazol-5-yl)amino)pyrimidin-2-yl)-1H-indol-2-yl)(9-methyl-3,9-diazaspiro[5.5]undecan-3-yl)methanone]"
21,0.091 µM,"CN(C)c1ccc(NC(=O)c2cc3ccc(-c4nccc(Nc5ccc6[nH]ncc6c5)n4)cc3[nH]2)cn1 [TDI01221, 6-(4-((1H-indazol-5-yl)amino)pyrimidin-2-yl)-N-(6-(dimethylamino)pyridin-3-yl)-1H-indole-2-carboxamide]"
22,0.097 µM,O=C(Nc1ccncc1I)c1cc2ccc(-c3nccc(Nc4ccc(-c5cn[nH]c5)cc4)n3)cc2[nH]1 [TDI01829C]
23,0.054 µM,"CN(CC(F)(F)F)C(=O)c1cc2ccc(-c3nccc(Nc4ccc(-c5cn[nH]c5)cc4)n3)cc2[nH]1 [TDI01355, 6-(4-((4-(1H-pyrazol-4-yl)phenyl)amino)pyrimidin-2-yl)-N-methyl-N-(2,2,2-trifluoroethyl)-1H-indole-2-carboxamide]"
24,0.116 µM,"CC(C)NC(=O)c1c[nH]c2ccc(-c3nccc(Nc4ccc5[nH]ncc5c4)n3)cc12 [TDI01285, 5-(4-((1H-indazol-5-yl)amino)pyrimidin-2-yl)-N-isopropyl-1H-indole-3-carboxamide]"
25,0.138 µM,"O=C(NC1CCC1)c1cc2ccc(-c3nc(Nc4ccc(-c5cn[nH]c5)cc4)c4sccc4n3)cc2[nH]1 [TDI01424, 6-(4-((4-(1H-pyrazol-4-yl)phenyl)amino)thieno[3,2-d]pyrimidin-2-yl)-N-cyclobutyl-1H-indole-2-carboxamide]"
26,0.116 µM,CN(CC#N)C(=O)c1cc2ccc(-c3nccc(Nc4ccc(-c5cn[nH]c5)cc4)n3)cc2[nH]1 [TDI01430]
27,0.063 µM,"O=C(Nc1cccnc1)c1cc2ccc(-c3nccc(Nc4ccc5[nH]ncc5c4)n3)cc2[nH]1 [TDI01171, 6-(4-((1H-indazol-5-yl)amino)pyrimidin-2-yl)-N-(pyridin-3-yl)-1H-indole-2-carboxamide]"
28,0.225 µM,"CC(C)NC(=O)c1cc2ccc(-c3nc(Nc4ccc5[nH]ncc5c4)c4ccsc4n3)cc2[nH]1 [TDI01142, 6-(4-((1H-indazol-5-yl)amino)thieno[2,3-d]pyrimidin-2-yl)-N-isopropyl-1H-indole-2-carboxamide]"
